Here are results for 30 compounds from patent publication US7858618B2, “Compounds” (Boehringer Ingelheim International GmbH, priority 2006, dated 2010).

The target in one data set is T1, hBK1 receptor (Homo sapiens, UniProt P46663).
T1 construct: expressed in transfected cells; host or cells: CHO cells
T1 sequence (P46663 1-353): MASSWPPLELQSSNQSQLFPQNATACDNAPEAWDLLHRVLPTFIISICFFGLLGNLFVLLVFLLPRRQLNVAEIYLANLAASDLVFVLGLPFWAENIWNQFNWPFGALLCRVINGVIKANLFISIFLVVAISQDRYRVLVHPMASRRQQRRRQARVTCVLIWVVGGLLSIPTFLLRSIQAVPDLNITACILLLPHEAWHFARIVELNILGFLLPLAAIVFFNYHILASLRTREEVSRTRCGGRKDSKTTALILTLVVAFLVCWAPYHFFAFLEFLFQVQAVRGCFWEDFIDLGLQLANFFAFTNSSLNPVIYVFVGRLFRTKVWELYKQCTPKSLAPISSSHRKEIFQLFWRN
Put plainly: hBK1 receptor binding (displacement of [3H]-kallidin (DesArg10, Leu9) from membranes of CHO cells expressing the hBK1 receptor). The conditions noted are these: CHO cell membranes expressing hBK1 receptor; 0.5 to 1.0 nM [3H]-kallidin (DesArg10, Leu9); 60 minutes at room temperature. The procedure:
Description of the Method of hBK1 Receptor Binding
CHO cells expressing the hBK1 receptor are cultivated in Dulbecco's modified medium. The medium from confluent cultures is removed and the cells are washed with PBS buffer, scraped off and isolated by centrifugation. The cells are then homogenized in suspension and the homogenate is centrifuged and resuspended. The protein content is determined and the membrane preparation obtained in this manner is then frozen at −80° C.
After thawing, 200 μl of the homogenate (50 to 100 μg of proteins/assay) are incubated at room temperature with 0.5 to 1.0 nM of kallidin (DesArg10, Leu9), [3,4-prolyl-3,43H(N)] and increasing concentrations of the test substance in a total volume of 250 μl for 60 minutes. The incubation is terminated by rapid filtration through GF/B glass fibre filters which had been pretreated with polyethyleneimine (0.3%). The protein-bound radioactivity is measured in a TopCount NXT. Non-specific binding is defined as radioactivity bound in the presence of 1.0 μM of kallidin (DesArg10, Leu9), [3,4-prolyl-3,43H(N)]. The concentration/binding curve is analysed using a computer-assisted nonlinear curve fitting. The Ki which corresponds to the test substance is determined using the data obtained in this manner. […]

Consider `CCN(CC)CC1CCN(c2ccc(NC(=O)CCN(C)S(=O)(=O)c3c(C)cc(OC)cc3C)nn2)CC1` [Example 87], for which the melting point (in general, the temperature, or range, at which the solid turns liquid) is 173 °C.

On to `COc1cc(C)c(S(=O)(=O)N(C)CCOCC(=O)N(C)[C@@H]2CCC[C@H](N3CCN(C)CC3)C2)c(C)c1` [(421)], for which, at hBK1 receptor, the Ki – broadly, the dissociation constant of the complex between target and ligand, obtained from inhibition or displacement – was determined as 8.7 nM.

For the compound `COc1cc(C)c(S(=O)(=O)N(C)CCOCC(=O)N(C)C[C@H]2CC[C@@](C)(CN3CCCC3)C2(C)C)c(C)c1` [(474)], the Ki on hBK1 receptor was 1.4 nM.

For `COc1cc(C)c(S(=O)(=O)N(C)CCOCC(=O)N(C)CC2CCC(NCCN(C)C)CC2)c(C)c1` (stereo not drawn) [(372)], at hBK1 receptor, the Ki amounted to 2.39 nM.

Compound `COc1cc(C)c(S(=O)(=O)N(C)CCOCC(=O)N(C)Cc2ccc(-c3c[nH]c(C)n3)cc2)c(C)c1` [(117)] displayed a Ki at hBK1 receptor of 0.99 nM.

Take `COc1cc(C)c(S(=O)(=O)N(C)CCOCC(=O)N(C)[C@H]2CCN(C3CCN(C)CC3)C2)c(C)c1` [(393)]: at hBK1 receptor, the Ki is 1.6 nM.

Turning to `COc1cc(C)c(S(=O)(=O)N(C)CCOCC(=O)N(C)[C@H]2CCN(C3CCN(CC4CC4)CC3)C2)c(C)c1` [(465)], the Ki at hBK1 receptor was 3.8 nM.

For `COc1cc(C)c(S(=O)(=O)N(C)CCOCC(=O)N(C)C[C@H]2CC[C@@](C)(CN3CCC3)C2(C)C)c(C)c1` [(621)], the Ki at hBK1 receptor is 5.8 nM.

As to `COc1cc(C)c(S(=O)(=O)N(C)CCOCC(=O)N(C)CC2CCC(N3CCCC(N(C)C)C3)CC2)c(C)c1` (stereo not drawn) [(587)], at hBK1 receptor, the Ki came to 9.5 nM.

With `COc1cc(C)c(S(=O)(=O)N(C)CCC(=O)Nc2cc(Br)c(N3CCC(N(C)C)CC3)cc2C)c(C)c1` [(184)], the Ki on hBK1 receptor was 1.3 nM.

For the compound `CCN(CC)CCC(=O)N1CC[C@@H](N(C)C(=O)COCCN(C)S(=O)(=O)c2c(C)cc(OC)cc2C)C1` [(624)], the Ki on hBK1 receptor worked out at 8 nM.

Turning to `COc1cc(C)c(S(=O)(=O)N(C)CCOCC(=O)N(C)Cc2ccc3nc(N)ccc3c2)c(C)c1` [(360)], the affinity on hBK1 receptor corresponds to a Ki of 4.4 nM.

In the case of `COc1cc(C)c(S(=O)(=O)N(C)CCOCC(=O)N(C)[C@H]2CC[C@@H](CN3CC[C@@H](N4CCCC4)C3)CC2)c(C)c1` [(472)], the Ki at hBK1 receptor is 0.68 nM.

Take `COc1cc(C)c(S(=O)(=O)N(C)CCOCC(=O)N(C)[C@@H]2CCN([C@H]3CC[C@@H](N4CCCC4)CC3)C2)c(C)c1` [(448)]: the Ki at hBK1 receptor was 0.82 nM.

Regarding `COc1cc(C)c(S(=O)(=O)N(C)CCOCC(=O)N(C)[C@@H]2CCN(C3CCN(C(C)C)CC3)C2)c(C)c1` [(398)], the Ki at hBK1 receptor was 0.74 nM.

On hBK1 receptor, `COc1cc(C)c(S(=O)(=O)N(C)CCOCC(=O)N(C)Cc2ccc(OCCN(C)C)c(Cl)c2)c(C)c1` [(352)] yielded a Ki of 9.2 nM.

Take `COc1cc(C)c(S(=O)(=O)N(C)CCOCC(=O)N(C)CC2CCC(N3CCC(N(C)C)CC3)CC2)c(C)c1` (stereo not drawn) [(586)]: the affinity on hBK1 receptor corresponds to a Ki of 5.1 nM.

In the case of `COc1cc(C)c(S(=O)(=O)N(C)CCOCC(=O)N(C)[C@H]2CC[C@@H](CCN3CCC3)CC2)c(C)c1` [(592)], affinity on hBK1 receptor was put at a Ki of 2.8 nM.

`COc1cc(C)c(S(=O)(=O)N(C)CCOCC(=O)N(C)CC2CCN(C3CCN(C)CC3)CC2)c(C)c1` [(384)] displayed a Ki on hBK1 receptor of 9.3 nM.

Take `COc1cc(C)c(S(=O)(=O)N(C)CCOCC(=O)N(C)Cc2ccc(OCC3CCCN3C)cc2)c(C)c1` (stereo not drawn) [(402)]: the Ki at hBK1 receptor is 9.3 nM.

At hBK1 receptor, `COc1cc(C)c(S(=O)(=O)N(C)CCOCC(=O)N(C)[C@H]2CC[C@@H](CCN3CCN(C)CC3)CC2)c(C)c1` [(464)] returned a Ki of 1.5 nM.

Regarding `COc1cc(C)c(S(=O)(=O)N(C)CCOCC(=O)N(C)Cc2ccc(N3CCC(N(C)C)C3)cc2)c(C)c1` (stereo not drawn) [(334)], the affinity at hBK1 receptor, expressed as Ki, was 8.65 nM.

At hBK1 receptor, `COc1cc(C)c(S(=O)(=O)N(C)CCOCC(=O)N(C)Cc2ccc(N3CCC(N4CCCC4)C3)cc2)c(C)c1` (stereo not drawn) [(353)] yielded an inhibition constant (Ki) of 6.1 nM.

In the case of `CN(CCC(=O)Nc1ccc(N2CCN(c3ccncc3)CC2)cc1)S(=O)(=O)c1cccc(Cl)c1Cl` [(1)], the affinity at hBK1 receptor, expressed as Ki, was 6.2 nM.

`COc1cc(C)c(S(=O)(=O)N(C)CCOCC(=O)N(C)C2CCC(N3CCC(CN4CCCC4)CC3)CC2)c(C)c1` (stereo not drawn) [(419)] came in with a Ki at hBK1 receptor of 0.65 nM.

At hBK1 receptor, `CCN1CCC(N2CC[C@H](N(C)C(=O)COCCN(C)S(=O)(=O)c3c(C)cc(OC)cc3C)C2)CC1` [(401)] had an inhibition constant (Ki) of 2.7 nM.

`COc1cc(C)c(S(=O)(=O)N(C)CCOCC(=O)N(C)C[C@H]2CC[C@@H](N(C)CCN(C)C)CC2)c(C)c1` [(428)] returned a Ki on hBK1 receptor of 6.3 nM.

On to `COc1cc(C)c(S(=O)(=O)N(C)CCOCC(=O)N(C)C[C@H]2CC[C@H](CN3CCC3)CC2)c(C)c1` [(392)], for which affinity on hBK1 receptor was put at a Ki of 8.3 nM.

`COc1cc(C)c(S(=O)(=O)N(C)CCC(=O)N[C@H]2CC[C@H](N3CCC(CCN4CCCC4)CC3)CC2)c(C)c1` [(303)] returned a Ki at hBK1 receptor of 6.32 nM.

The compound `COc1cc(C)c(S(=O)(=O)N(C)CC(=O)NCC(=O)N(C)Cc2ccc(NCCN(C)C)cc2)c(C)c1` [(492)] showed a Ki at hBK1 receptor of 3.2 nM.
